Experimental data as given in patent US12115178B2, “Acylated active agents and methods of their use for the treatment of autoimmune disorders” (Flagship Pioneering Innovations V, Inc., priority 2018, dated 2024).

What was measured:
Type in all cases: in vitro ADME
[1] = Assay 3. In vitro Colonic Material Stability Assay
Method: Assay 3. In vitro Colonic Material Stability Assay. This assay was used to assess the stability of an acylated active agent in a large intestine. All experiments were performed in an anaerobic chamber containing 90% nitrogen, 5% hydrogen and 5% carbon dioxide. Colonic material was resuspended as a slurry (15% w/v final concentration) in pre-reduced, anaerobically sterilized dilution blanks (Anaerobe Systems AS-908). The colonic material was then inoculated into 96 well plates containing YCFAC media (Anaerobe Systems AS-680) or other suitable media (6.7 μL slurry into 1 mL total media). Compounds or groups of compounds were added to each individual well to reach a final analyte concentration of 1 or 10 μM, and the material was mixed by pipetting. Sample was removed after set timepoints (0, 120, 240, 480, 1440, 2880 minutes after initiation of the assay), quenched with acetonitrile containing internal standard, and analyzed by LC/MS.

[2] = Assay 1. Stability in Simulated Gastric Fluid (SGF); details: SGF pH 1.6 with pepsin, 1 μM, 37° C.
Procedure, shortened: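 Degradation rate from LC/MS of acetonitrile-quenched aliquots (T0, then regular intervals). Fresh SGF (pH 1.6 NaCl, FaSSIF powder, pepsin 0.1 mg/mL) held compound at 1 μM final, 37° C; 1 mM DMSO stock.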

[3] = Assay 2. Stability in Simulated Intestinal Fluid (SIF); details: SIF pH 6.7 with pancreatin, 1 μM, 37° C.
Procedure, shortened: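 Degradation rates came from LC/MS of acetonitrile-quenched samples drawn at intervals, starting at T0. The medium was freshly made pH 6.7 FaSSIF containing pancreatin, and test compound was present at 1 µM while being shaken at 37 °C.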

[4] = colonic material slurry, anaerobic, 1 or 10 μM

Row | SMILES | Assay 3 (% Remaining at 24 h) [1, 4] | Assay 1 (SGF) (% Remaining @ 1 hour) [2] | Assay 2 (SIF) (% @ Remaining 4 hours) [3] | Assay 3 (% Remaining at 24 h) ([1]; Run 1, colonic material) | Assay 3 (% Remaining at 24 h) ([1]; Run 2, colonic material)
1 | O=C(CCc1c[nH]c2ccccc12)O[C@@H]1OC[C@@H](OC(=O)CCc2c[nH]c3ccccc23)[C@@H](OC(=O)CCc2c[nH]c3ccccc23)[C@H]1OC(=O)CCc1c[nH]c2ccccc12 [Compound 80, (2S,3R,4R,5R)-3,4,5-tris({[3-(1H-indol-3-yl)propanoyl]oxy})oxan-2-yl 3-(1H-indol-3-yl)propanoate] | A (<25% of the tested compound remaining) | C (>75% of the tested compound remaining) | A (<25% of the tested compound remaining) |  | 
2 | CCCC(=O)O[C@H]1[C@H](OC(=O)CCC)[C@H](OC(=O)CCc2c[nH]c3ccccc23)O[C@@H](C)[C@H]1OC(=O)CCC [Compound 84, (2S,3S,4R,5R,6S)-4,5-bis(butanoyloxy)-2-{[3-(1H-indol-3-yl)propanoyl]oxy}-6-methyloxan-3-yl butanoate] | A (<25% of the tested compound remaining) | C (>75% of the tested compound remaining) | A (<25% of the tested compound remaining) |  | 
3 | CCC(=O)O[C@@H]1[C@@H](OC(=O)CC)[C@@H](OC(=O)Cc2c[nH]c3ccccc23)OC[C@@H]1OC(=O)CC [Compound 108, (3S,4S,5R,6R)-6-{[2-(1H-indol-3-yl)acetyl]oxy}-4,5-bis(propanoyloxy)oxan-3-yl propanoate] | A (<25% of the tested compound remaining) | C (>75% of the tested compound remaining) | A (<25% of the tested compound remaining) |  | 
4 | CCC(=O)Oc1cc(OC(=O)CC)c2c(c1)O[C@H](c1ccc(OC(=O)CC)c(OC(=O)CC)c1)[C@H](OC(=O)CC)C2 [Compound 194, (2R,3R)-2-[3,4-bis(propanoyloxy)phenyl]-5,7-bis(propanoyloxy)-3,4-dihydro-2H-1-benzopyran-3-yl propanoate] | A (<25% of the tested compound remaining) | B (25-75% of the tested compound remaining) | A (<25% of the tested compound remaining) |  | 
5 | CCC(=O)OC[C@H]1O[C@H](OC(=O)CCc2c[nH]c3ccccc23)[C@H](OC(=O)CC)[C@@H](OC(=O)CC)[C@@H]1OC(=O)CC [Compound 109, [(2R,3R,4S,5R,6R)-6-{[3-(1H-indol-3-yl)propanoyl]oxy}-3,4,5-tris(propanoyloxy)oxan-2-yl]methyl propanoate] | A (<25% of the tested compound remaining) | C (>75% of the tested compound remaining) | A (<25% of the tested compound remaining) |  | 
6 | CCC(=O)O[C@@H]1OC[C@@H](OC(=O)CC)[C@@H](OC(=O)CC)[C@H]1OC(=O)CC [Compound 104, (2S,3R,4R,5R)-3,4,5-tris(propanoyloxy)oxan-2-yl propanoate] | A (<25% of the tested compound remaining) | C (>75% of the tested compound remaining) | A (<25% of the tested compound remaining) |  | 
7 | CCC(=O)O[C@H]1OC[C@@H](OC(=O)CC)[C@@H](OC(=O)CC)[C@H]1OC(=O)CC [Compound 101, (2R,3R,4R,5R)-3,4,5-tris(propanoyloxy)oxan-2-yl propanoate] | A (<25% of the tested compound remaining) | C (>75% of the tested compound remaining) | A (<25% of the tested compound remaining) |  | 
8 | CCC(=O)O[C@@H]1[C@@H](OC(=O)CC)[C@@H](OC(=O)CCc2c[nH]c3ccccc23)OC[C@@H]1OC(=O)CC [Compound 126, (2R,3R,4S,5S)-3,4,5-tris(propanoyloxy)oxan-2-yl 3-(1H-indol-3-yl)propanoate] | A (<25% of the tested compound remaining) | C (>75% of the tested compound remaining) | A (<25% of the tested compound remaining) |  | 
9 | CCCC(=O)O[C@@H]1[C@@H](OC(=O)CCC)[C@@H](OC)OC[C@H]1OC(=O)CCC [Compound 71, (2S,3R,4S,5R)-4,5-bis(butanoyloxy)-2-methoxyoxan-3-yl butanoate] | A (<25% of the tested compound remaining) | B (25-75% of the tested compound remaining) | A (<25% of the tested compound remaining) |  | 
10 | CCC(=O)O[C@H]1[C@H](OC(=O)/C=C/c2c[nH]c3ccccc23)OC[C@@H](OC(=O)CC)[C@H]1OC(=O)CC [Compound 92, (2S,3R,4R,5R)-3,4,5-tris(propanoyloxy)oxan-2-yl (2E)-3-(1H-indol-3-yl)prop-2-enoate] | A (<25% of the tested compound remaining) | C (>75% of the tested compound remaining) | A (<25% of the tested compound remaining) |  | 
11 | CCCC(=O)O[C@@H]1[C@@H](OC(=O)CCC)[C@@H](OC)OC[C@@H]1OC(=O)CCC [Compound 52, (2S,3R,4S,5S)-3,5-bis(butanoyloxy)-2-methoxyoxan-4-yl butanoate] | B (25-75% of the tested compound remaining) | B (25-75% of the tested compound remaining) | B (25-75% of the tested compound remaining) |  | 
12 | C[C@@H]1O[C@H](OC(=O)CCc2c[nH]c3ccccc23)[C@@H](OC(=O)CCc2c[nH]c3ccccc23)[C@H](OC(=O)CCc2c[nH]c3ccccc23)[C@@H]1OC(=O)CCc1c[nH]c2ccccc12 [Compound 70, (2R,3S,4R,5R,6S)-3,4,5-tris({[3-(1H-indol-3-yl)propanoyl]oxy})-6-methyloxan-2-yl 3-(1H-indol-3-yl)propanoate] |  | B (25-75% of the tested compound remaining) | A (<25% of the tested compound remaining) | A (<25% of the tested compound remaining) | B (25-75% of the tested compound remaining)
13 | CCCC(=O)O[C@@H]1[C@@H](OC(=O)CCC)[C@H](C)O[C@@H](OC(=O)CCc2c[nH]c3ccccc23)[C@@H]1OC(=O)CCC [Compound 83, (2S,3R,4R,5S,6S)-4,5-bis(butanoyloxy)-2-{[3-(1H-indol-3-yl)propanoyl]oxy}-6-methyloxan-3-yl butanoate] | A (<25% of the tested compound remaining) | C (>75% of the tested compound remaining) | A (<25% of the tested compound remaining) |  | 
14 | CCCC(=O)O[C@@H]1[C@@H](OC(=O)CCC)[C@H](OC(=O)CCc2c[nH]c3ccccc23)OC[C@H]1OC(=O)CCC [Compound 97, (2S,3R,4S,5R)-4,5-bis(butanoyloxy)-2-{[3-(1H-indol-3-yl)propanoyl]oxy}oxan-3-yl butanoate] | A (<25% of the tested compound remaining) | B (25-75% of the tested compound remaining) |  |  | 
15 | CCCC(=O)O[C@@H]1[C@@H](OC(=O)CCC)[C@@H](Oc2ccc(N)cc2C(=O)O)OC[C@H]1OC(=O)CCC [Compound 18, 5-amino-2-[(2R,3R,4S,5R)-3,4,5-tri(butanoyloxy)tetrahydropyran-2-yl]oxy-benzoic acid] | C (>75% of the tested compound remaining) | C (>75% of the tested compound remaining) |  |  | 
16 | CCCC(=O)O[C@@H]1[C@H](OC(=O)CCC)[C@H](C)OC(Oc2ccccc2C(=O)O)[C@H]1OC(=O)CCC (stereo partly drawn) [Compound 29, 2-(((3S,4R,5R,6S)-3,4,5-tris(butyryloxy)-6-methyltetrahydro-2H-pyran-2-yl)oxy)benzoic acid] | C (>75% of the tested compound remaining) | C (>75% of the tested compound remaining) |  |  | 
17 | CCCC(=O)O[C@@H]1[C@@H](OC(=O)CCC)[C@H](C)O[C@H](OC(=O)CCc2c[nH]c3ccccc23)[C@@H]1OC(=O)CCC [Compound 86, (2R,3R,4R,5S,6S)-4,5-bis(butanoyloxy)-2-{[3-(1H-indol-3-yl)propanoyl]oxy}-6-methyloxan-3-yl butanoate] | A (<25% of the tested compound remaining) | B (25-75% of the tested compound remaining) |  |  | 
